One test has as its system T47D. As to the kind of experiment: Cell viability assay, T47D. It counts as cell-based. The following applies: Homo sapiens; breast carcinoma cell line T47D. Here is the method: Antitumor activity of the compounds and doxorubicin as a positive control was assessed by using the CellTiter-Blue Cell Viability Assay (Promega, #G8082) or CellTiter-Glow® Luminescent Cell Viability assay (Promega #G7572) according to the manufacturer's instructions. The compounds were tested at 5 or 6 concentrations in half-log increments (highest concentration 30 μM or 100 μM) in duplicate or triplicate well conditions.
Tumor cells were grown at 37° C. in a humidified atmosphere with 5% CO2 in RPMI 1640 or DMEM medium, supplemented with 10% (v/v) fetal calf serum and 50 μg/ml gentamicin for up to 20 passages, and were passaged once or twice weekly. Cells were harvested using TrypLE or PBS buffer containing 1 mM EDTA, and the percentage of viable cells was determined using a CASY Model TI cell counter (OMNI Life Science). Cells were harvested from exponential phase cultures, counted and plated in 96 well flat-bottom microtiter plates at a cell density depending on the cell line's growth rate (4,000-20,000 cells/well depending on the cell line's growth rate, up to 60,000 for hematological cancer cell lines) in RPMI 1640 or DMEM medium supplemented with 10% (v/v) fetal calf serum and 50 μg/ml gentamicin (140 μl/well). […] Viability of cells was quantified by the CellTiter-Blue® cell viability assay (Promega G8081) or CellTiter-Glow® Luminescent Cell Viability assay (Promega #G7572). […]

The subject of the next test is pancreatic PDX. Briefly: Cell viability, pancreatic PDX (panel statement). The following applies: Table 19; read-out: IC50, pancreatic PDX growth. Format: cell-based. Here is the method: PDX-derived cell cultures were obtained from tumors explanted from mice and isolated by mechanical and enzymatic dissociation. […] Cells were harvested and seeded in 96-wells plates at a density of 1.25 to 5×10^3 cells/well for cytotoxicity assays. Cells were incubated 48 h at 37° C. prior to addition of test molecules and vehicle (DMSO, 0.1%) at desired final concentrations. Cell viability was assessed before drugs' addition (To) and 5 days after test molecules addition by measuring ATP cell content using CellTiter-Glo® Luminescent Cell Viability Assay (Promega) according to the manufacturer's instructions. Luciferase activity was measured on a luminometer (PerkinElmer® EnVision™). Each concentration of compounds was tested in triplicate.
Viability was calculated as a percentage of ATP value compared to vehicle treated controls.
For PDX primary cell cultures, the tumour tissue was washed with PBS containing antibiotic-antimycotic and non-tumour tissue and necrotic tumour tissues were separated. The tumour tissue was transferred to a new dish and cut into 1˜2 mm^3 fragments, resuspended in RPMI-1640 medium and centrifuged at 1,200 rpm for 6 min at room temperature. The pelleted material was resuspended with 15 mL of Tumour Cell Digestion Solution and incubated at 37° C. for 1 hour with agitation. […]

In a further test the target is T1, RIOK2 (Homo sapiens, UniProt Q9BVS4).
T1 construct: purchased Eurofins (KINOMEscan); host or cells: E. coli BL21-derived host (T7 phage) or HEK-293
As to the kind of experiment: KINOMEscan competition binding, RIOK2. How it is done:
Selected compounds were screened for kinase inhibition using the KINOMEscan™ assay (Eurofins) which is based on a competition binding assay that quantitatively measures the ability of a compound to compete with an immobilized, active-site directed ligand. The assay was performed by combining three components: DNA-tagged kinase; immobilized ligand; and the test compound. The ability of the test compound to compete with the immobilized ligand was measured via quantitative PCR of the DNA tag.
Kinase-tagged T7 phage strains were prepared in an E. coli host derived from the BL21 strain. E. coli were grown to log-phase and infected with T7 phage and incubated with shaking at 32° C. until lysis. The lysates were centrifuged and filtered to remove cell debris. The remaining kinases were produced in HEK-293 cells and subsequently tagged with DNA for qPCR detection. Streptavidin-coated magnetic beads were treated with biotinylated small molecule ligands for 30 minutes at room temperature to generate affinity resins for kinase assays. […] Kds were determined using an 11-point 3-fold compound dilution series with three DMSO control points. […] The kinase concentration in the eluates was measured by qPCR. […]
Binding constants (Kds) were calculated with a standard dose-response curve using the Hill equation: Response=Background+[Signal−Background/1+(Kd^Hill Slope/Dose^Hill Slope)] […]

The values below come from patent publication US20240124503A1, “HETEROAROMATIC PHOSPHONIUM SALTS AND THEIR USE TREATING CANCER” (FLORATEK PHARMA S.A., priority 2021, published 2024).

T1 sequence (Q9BVS4 whole entry): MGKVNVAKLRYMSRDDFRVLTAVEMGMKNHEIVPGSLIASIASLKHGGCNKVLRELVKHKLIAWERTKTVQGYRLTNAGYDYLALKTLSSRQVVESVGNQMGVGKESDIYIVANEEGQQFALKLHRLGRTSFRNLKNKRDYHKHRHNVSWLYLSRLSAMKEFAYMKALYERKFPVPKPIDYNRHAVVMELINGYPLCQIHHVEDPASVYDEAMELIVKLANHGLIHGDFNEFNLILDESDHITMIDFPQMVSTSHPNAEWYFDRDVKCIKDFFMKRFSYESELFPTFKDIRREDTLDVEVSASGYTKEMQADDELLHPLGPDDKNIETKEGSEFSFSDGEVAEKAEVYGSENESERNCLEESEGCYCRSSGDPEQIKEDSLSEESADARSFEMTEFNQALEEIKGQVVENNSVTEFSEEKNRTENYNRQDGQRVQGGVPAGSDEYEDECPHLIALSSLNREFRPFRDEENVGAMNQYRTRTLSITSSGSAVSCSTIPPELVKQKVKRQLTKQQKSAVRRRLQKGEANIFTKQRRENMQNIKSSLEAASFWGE

As usually defined, the IC50 is the midpoint of a concentration-inhibition curve. Broadly, the Kd is the equilibrium constant for the complex coming apart. In the case of `COc1c(O)ccc2c(=O)c(O)c(-c3ccc(CCCC[P+](c4ccccc4)(c4ccccc4)c4ccccc4)cc3)oc12` [SND190, (4-(4-(3,7-Dihydroxy-8-methoxy-4-oxo-4H1-chromen-2-yl)phenyl)butyl)triphenylphosphonium bromide], the IC50 in the test with T47D was 1.3 µM; in the test on pancreatic PDX, less than 10 µM. In addition, the Kd on RIOK2 was determined as 0.71 µM.
